Assay results reported in article PMC12677607, “Identification of a Pair of Linear or Cyclic Naturally Inspired Bifunctional Lipopeptide Antibiotics That Overcome Antimicrobial Resistance” (Advanced Science, 2025).
Bridge positions count the residues as written; N and C are the ends. Square brackets hold non-standard residues; d marks the D form. Peptide text beside a SMILES is read from it. * marks the point of attachment. Myristoyl = CCCCCCCCCCCCCC(=O)*; Orn = NCCC[C@H](N)C(=O)O; Dab = NCC[C@H](N)C(=O)O; Dap = NC[C@H](N)C(=O)O

Key:
[1] = system: S. aureus USA300 Cls2A338stop; experiment: MIC against telomycin-resistant mutant; assay type: cell-based
Procedure: All MIC assays were performed two independent times (n = 2) in 96‐well plates using a broth micro‐dilution method. The lowest concentration of that inhibited visible microbial growth was recorded as the MIC value.
For most of bacterial strains, overnight cultures were diluted 5000‐fold in LB broth. For E. faecium and S. aureus, overnight cultures were diluted 1000‐ and 10000‐fold in LB broth, respectively. 100 µL of diluted cells was mixed with 100 µL of LB broth containing each peptide ranging from 64 to 0.125 µg mL^−1 at 2‐fold serial dilutions.
(§1) Overnight cultures S. aureus USA300 were diluted 10000‐fold in LB broth, and 100 µL of dilute cell suspension was added to 96‐well plates containing 100 µL serially diluted aquicidine C4, telomycin, and daptomycin (with 15 mM CaCl2). Overnight cultures K. pneumoniae CRKP5452 were diluted 5000‐fold in LB broth, and 100 µL of dilute cell suspension was added to 96‐well plates containing 100 µL serially diluted aquicidine L and colistin. After an incubation of 24 h at 37 °C, the MIC value was determined. […] The MIC value was recorded as described above, and the process was repeated daily for 21 days. Experiments were performed two independent times (n = 2).
Single‐nucleotide polymorphisms (SNPs) for telomycin‐, daptomycin‐ or colistin‐resistant mutants were identified using SNIPPY by mapping DNBSEQ‐seq reads to the reference genome of S. aureus USA300 or K. pneumoniae CRKP5452.

S. aureus USA300 [2] = experiment: Raising resistant mutants by direct plating; assay type: cell-based
S. aureus USA300 [3] = experiment: Resistance acquisition by serial passaging; assay type: cell-based; conditions: S. aureus USA300, sub-MIC levels, daily passage for 21 days, n = 2
Procedure: as §1

[4] = system: methicillin-resistant S. aureus USA300; experiment: Neutropenic thigh infection model; assay type: in vivo, mouse; conditions: 50 mg kg^−1 s.c. at 2, 10, 18 h, burden at 24 h, n = 8 thighs
Procedure: (§2) Six‐week‐old female ICR mice were used in all experiments and housed in a temperature‐controlled room (25 °C) with 12‐h light/dark cycle and 30% relative humidity. Meropenem‐resistant A. baumannii 1104008 or methicillin‐resistant S. aureus USA300 was cultured in the MH broth containing 50 µg mL^−1 of gentamycin and the MH broth, respectively, at 37 °C and 200 rpm overnight. Then, the strains A. baumannii 1104008 or S. aureus USA300 were washed twice in 0.9% saline and further diluted to verify the bacterial suspension with a challenge inoculum of ≈1.0 × 10^6 CFU in a volume of 0.05 mL per mouse thigh. Mice were rendered neutropenic by receiving 150 and 100 mg kg^−1 of cyclophosphamide via intraperitoneal injection on day‐4 and day‐1 before infection, respectively. For treating the thigh infection caused by A. baumannii 1104008, mice were given 100 µL of vehicle (20% solutol), colistin (25 mg kg^−1, 20% solutol), or aquicidine L (25 mg kg^−1, 20% solutol) at 2, 8, 14, and 20 h after post‐infection via subcutaneous injection. […] All mice were observed after infection for morbidity, and any abnormal signs were recorded. […] The treatment efficacies of aquicidine L or C4 were determined as the bacterial burden reduction in the thighs relative to both the vehicle and colistin‐ or vancomycin‐treated controls. All graphic data were analyzed using the GraphPad Prism software (Prism10).

K. pneumoniae CRKP5452 = experiment: Resistance acquisition by serial passaging; assay type: cell-based; conditions: K. pneumoniae CRKP5452, sub-MIC levels, daily passage for 21 days, n = 2
Procedure: as §1

[5] = system: meropenem-resistant A. baumannii 1104008; experiment: Neutropenic thigh infection model; assay type: in vivo, mouse; conditions: A. baumannii 1104008 thigh, 25 mg kg^−1 s.c. at 2, 8, 14, 20 h, burden at 24 h, n = 8 thighs
Procedure: as §2

| SMILES | antibacterial activity (MIC) S. aureus USA300 Cls2A338stop ([1]; Figure S127b, telomycin-resistant mutant) | increase in MIC against resistant mutant compared to wild type ([1]; S. aureus USA300 Cls2^A338stop vs wild type) | increase in MIC of colonies from direct plating on antibiotic-containing solid media (S. aureus USA300 [2]) | increase of MIC during serial passaging (S. aureus USA300 [3]) | reduction in CFUs compared with the vehicle [4] | increase of MIC during serial passaging (K. pneumoniae CRKP5452) | reduction in CFUs compared with the vehicle [5] |
| --- | --- | --- | --- | --- | --- | --- | --- |
| CCCCCCCCCCCCCC(=O)N[C@@H](CN)C(=O)N[C@H](C(=O)N[C@@H](CC(C)C)C(=O)N[C@H]1COC(=O)[C@H](Cc2ccccc2)NC(=O)[C@H](CC(N)=O)NC(=O)[C@H](CCCN)NC(=O)[C@H]([C@@H](C)CC)NC(=O)[C@H](Cc2ccccc2)NC(=O)[C@H](CN)NC(=O)[C@H](CCN)NC1=O)[C@@H](C)O [synAQU5-C4] (Myristoyl-[Dap]TLS[Dab][Dap]FI[Orn]NF; ester 4-C) | 16 µg/mL | 4 fold | did not show more than a one‐fold increase in MIC | no higher than twofold | 3 log10 | – | – |
| CCCCCCCCCCCCCC(=O)N[C@@H](CN)C(=O)N[C@H](C(=O)N[C@@H](CC(C)C)C(=O)N[C@@H](CO)C(=O)N[C@@H](CCN)C(=O)N[C@@H](CN)C(=O)N[C@@H](Cc1ccccc1)C(=O)N[C@H](C(=O)N[C@@H](CCCN)C(=O)N[C@@H](CC(N)=O)C(=O)N[C@@H](Cc1ccccc1)C(=O)O)[C@@H](C)CC)[C@@H](C)O [synAQU5-L] (Myristoyl-[Dap]TLS[Dab][Dap]FI[Orn]NF-OH) | – | – | – | – | – | no higher than two‐fold | 3 log10 |
